Test [1] relates to SB.mhdgc-1. The test can be described thus: viability at highest tested concentration (MAXR) relative to DMSO; higher = less cytotoxic. The conditions noted are these: SB.mhdgc-1 (hereditary c.1380delA CDH1 gastric cancer). In a few lines:
(§1)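 Reported here is DMSO-normalised viability, either at the highest concentration or as a trapezoidal area under the curve. Hereditary or sporadic patient-derived gastric cancer cells received compound by pintool at 11 threefold-diluted concentrations and were read with CellTiter-Glo after 48 h.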

In test [2] the test system is SB.msgc-1. Described as above. The conditions noted are these: SB.msgc-1 (sporadic gastric cancer). In a few lines:
as §1

Test [3] concerns SB.mhdgc-1. The test can be described thus: area under the dose-response curve of % viability (trapezoidal, 11 doses) (% viability x log10 concentration); higher = less cytotoxic. To be noted: SB.mhdgc-1 (hereditary c.1380delA CDH1 gastric cancer). In a few lines: as §1
Test [4] deals with SB.msgc-1. The description is as above. To be noted: SB.msgc-1 (sporadic gastric cancer). In a few lines: as §1

For the molecule `COC1=CC(=CC(=C1)C2=CC=C3N=CC\4=C(N(C(=O)\C=C4)C5=CC(=C(C=C5)N6CCNCC6)C(F)(F)F)C3=C2)OC` (top concentration 46.0829 µM), the viability with SB.mhdgc-1 [1] came out at 2.73%; with SB.msgc-1 [2], 16.9%. In addition, the “area under the dose-response curve” value with SB.mhdgc-1 [3] was found to be 376; with SB.msgc-1 [4] it was 453.
The matching figures for `CC[C@H](NC1=C2N=C[NH]C2=NC=N1)C/3=N/C4=C(C(=CC=C4)F)C(=O)N3C5=CC=CC=C5` [CAL-101] (top concentration 46.0829 µM): 9.41%, 28.5%, 436 and 455.
For `CC(C)(C)C(=O)Oc1ccc([S+](=O)([O-])Nc2ccccc2C(=O)NCC(=O)O)cc1` [Sivelestat] (top concentration 46.0829 µM), in that order: 134%, 110%, 563 and 505.
For `COc1cc2cc(c1Cl)N(C)C(=O)C[C@H](OC(=O)C(C)C)[C@]1(C)O[C@@H]1[C@H](C)[C@@H]1C[C@@](O)(NC(=O)O1)[C@H](OC)/C=C/C=C(\C)C2` [Ansamitocin P3] (top concentration 46.0829 µM), in that order: 40.3%, 40.8%, 223 and 207.
`OC1=CC2=C(C(=C1)O)C(=O)\C(=C(/O2)C3=CC(=C(O)C=C3)O)O` [Quercetine] (top concentration 46.0829 µM): the viability with SB.mhdgc-1 [1] was found to be 1.52%; in the test with SB.msgc-1 [2], 7.76%. In addition, the “area under the dose-response curve” value came out at 474 in the test with SB.mhdgc-1 [3] and 456 in the test with SB.msgc-1 [4].
The matching figures for `C[C@]12CC[C@@H]3c4ccc(O)cc4CC[C@H]3[C@@H]1C[C@@H](O)[C@@H]2O` [Estriol] (top concentration 46.0829 µM): 106%, 91%, 513 and 517.
The matching figures for `CCC(=O)NCC[C@@H]1CCc2ccc3c(c21)CCO3` [Ramelteon] (top concentration 46.0829 µM): 48%, 59.9%, 510 and 563.
For `COc1cc2nccc(Oc3ccc(NC(=O)C4(C(=O)Nc5ccc(F)cc5)CC4)cc3)c2cc1OC` [Cabozantinib] (top concentration 46.0829 µM), in that order: 51.9%, 41.3%, 418 and 446.
On to `Cc1ccc(-n2nc(C(C)(C)C)cc2NC(=O)Nc2ccc(OCCN3CCOCC3)c3ccccc23)cc1` [Doramapimod] (top concentration 46.0829 µM), for which the viability with SB.mhdgc-1 [1] is 21.9%; with SB.msgc-1 [2] it was 48%. Further, the results for the “area under the dose-response curve” value in the test on SB.mhdgc-1 [3] and in the test on SB.msgc-1 [4] were 488 and 508, respectively.
Take `Nc1ncnc2c1ncn2[C@@H]1O[C@H](CO)[C@@H](O)[C@H]1O` [Adenosine] (top concentration 46.0829 µM): the viability worked out at 48.9% with SB.mhdgc-1 [1] and 8.07% in the test on SB.msgc-1 [2]. The figures for the “area under the dose-response curve” value in the test on SB.mhdgc-1 [3] and with SB.msgc-1 [4] were 451 and 454, respectively.
The matching figures for `O=C(Nc1ccc(F)c(C(F)(F)F)c1)Nc1nnc(-c2ccncc2)s1` (top concentration 46.0829 µM): 84.2%, 60.9%, 522 and 473.
The matching figures for `Clc1ccccc1C(c1ccccc1)(c1ccccc1)n1ccnc1` [Clotrimazole] (top concentration 46.0829 µM): 72.4%, 64.8%, 527 and 525.
For `Nc1nc2ccc(OC(F)(F)F)cc2s1` [Riluzole] (top concentration 46.0829 µM), in that order: 62.8%, 62.1%, 520 and 508.
Regarding `COc1ccc(CCC(=O)c2c(O)cc(O[C@@H]3O[C@H](CO)[C@@H](O)[C@H](O)[C@H]3O[C@@H]3O[C@@H](C)[C@H](O)[C@@H](O)[C@H]3O)cc2O)cc1O` [Neohesperidin dihydrochalcone] (top concentration 46.0829 µM), the viability in the test with SB.mhdgc-1 [1] worked out at 68.4%; in the test on SB.msgc-1 [2] it was 49.3%. The “area under the dose-response curve” value in the test with SB.mhdgc-1 [3] turned out to be 504; in the test on SB.msgc-1 [4] it was 502.
The matching figures for `CCn1c(-c2nonc2N)nc2cnc(Oc3cccc(NC(=O)c4ccc(OCCN5CCOCC5)cc4)c3)cc21` (top concentration 46.0829 µM): 35.6%, 54.2%, 479 and 514.
In the case of `CC1(C)CCC[C@]2(C)[C@H]3CC(=O)O[C@]3(C)CC[C@@H]12` [Sclareolide] (top concentration 46.0829 µM), the values for the viability in the test with SB.mhdgc-1 [1] and in the test with SB.msgc-1 [2] were 65% and 50.1%, respectively. For the same molecule, the entries for the “area under the dose-response curve” value in the test with SB.mhdgc-1 [3] and in the test with SB.msgc-1 [4] were 573 and 530, respectively.
The matching figures for `COC1=CC2=C(C=C1OC)[C@H]3[C@@H](CO2)OC4=C(C=CC5=C4\C=C/C(C)(C)O5)C3=O` [Deguelin] (top concentration 46.0829 µM): 8.16%, 22.6%, 424 and 338.
For the molecule `O=C1c2ccccc2-c2n[nH]c3cccc1c23` (top concentration 46.0829 µM), the viability was 68.6% in the test with SB.mhdgc-1 [1] and 93% in the test on SB.msgc-1 [2]. Besides, the figures for the “area under the dose-response curve” value with SB.mhdgc-1 [3] and in the test on SB.msgc-1 [4] were 448 and 536, respectively.
The matching figures for `Cc1ccc([S+](=O)([O-])N[C@@H](Cc2ccccc2)C(=O)CCl)cc1` [TPCK] (top concentration 46.0829 µM): 6.16%, 19%, 497 and 498.
For `CC[S+](=O)([O-])Nc1ccc2c(c1)/C(=C(/Nc1ccc(CN3CCCCC3)cc1)c1ccccc1)C(=O)N2` [Hesperadin] (top concentration 46.0829 µM), in that order: 0.952%, 36.7%, 394 and 475.
The matching figures for `O=C1C[C@@H](c2ccc(O)cc2)Oc2cc(O)cc(O)c21` [Naringenin] (top concentration 46.0829 µM): 112%, 113%, 572 and 520.
`OC[C@H]1OCC(O1)[N@@]2C=CC(N)=NC2=O` (some centres not stated) [Troxacitabine] (top concentration 46.0829 µM): the viability in the test on SB.mhdgc-1 [1] was found to be 103%; in the test with SB.msgc-1 [2], 109%. Also, the “area under the dose-response curve” value in the test with SB.mhdgc-1 [3] stood at 538; in the test on SB.msgc-1 [4], 507.
For `C[N+](C)([O-])CCNc1ccc(NCC[N+](C)(C)[O-])c2c1C(=O)c1c(O)ccc(O)c1C2=O` [Banoxantrone] (top concentration 46.0829 µM), in that order: 34.8%, 65.6%, 483 and 492.

Values taken from the supplement of paper PMC5412046.
